Article PMC7675038, “A Single‐Stranded DNA‐Encoded Chemical Library Based on a Stereoisomeric Scaffold Enables Ligand Discovery by Modular Assembly of Building Blocks” (Advanced Science, 2020)

Target: T1, HSA, human serum albumin (Homo sapiens, UniProt P02768)
T1 construct: gene ALB
Assay: fluorescence polarization, off-DNA
Format: binding

T1 sequence (P02768 25-609): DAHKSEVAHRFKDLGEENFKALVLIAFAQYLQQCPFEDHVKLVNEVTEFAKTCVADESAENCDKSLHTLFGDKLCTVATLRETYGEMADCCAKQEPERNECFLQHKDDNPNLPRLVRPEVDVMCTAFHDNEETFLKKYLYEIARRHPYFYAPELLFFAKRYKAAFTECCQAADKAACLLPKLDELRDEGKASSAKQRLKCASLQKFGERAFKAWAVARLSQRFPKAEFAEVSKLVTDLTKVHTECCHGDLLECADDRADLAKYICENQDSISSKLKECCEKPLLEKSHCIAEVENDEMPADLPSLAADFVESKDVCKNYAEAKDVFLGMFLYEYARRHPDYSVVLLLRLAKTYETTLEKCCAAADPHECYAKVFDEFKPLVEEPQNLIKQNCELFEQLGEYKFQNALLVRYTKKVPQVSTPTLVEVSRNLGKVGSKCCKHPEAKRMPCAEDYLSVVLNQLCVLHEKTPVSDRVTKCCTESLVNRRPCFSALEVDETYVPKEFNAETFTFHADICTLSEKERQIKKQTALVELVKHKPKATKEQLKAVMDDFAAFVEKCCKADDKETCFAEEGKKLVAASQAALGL

Kd	Compound
5 ± 3 µM	Cc1ccc(C(=O)NCC(=O)N[C@@H](CCC(=O)N[C@@H](CCC(N)=O)C(=O)O)C(=O)N2CCc3nc(-c4ccccc4)ncc3C2)cc1 [compound 17, 17]
11 ± 2 µM	Cc1ccc(C(=O)NCC(=O)N[C@H](CCC(=O)N[C@@H](CCC(N)=O)C(=O)O)C(=O)N2CCc3nc(-c4ccccc4)ncc3C2)cc1 [compound 16, 16]
